Where no end group is shown, it is not given here.
Assays:
CCKB receptor = biological target: T1, CCKB receptor (Rattus norvegicus, UniProt P30553); conditions: COS-7 cells, rat CCKB receptor cDNA, 50 pM radioligand
T1 sequence (P30553 1-452): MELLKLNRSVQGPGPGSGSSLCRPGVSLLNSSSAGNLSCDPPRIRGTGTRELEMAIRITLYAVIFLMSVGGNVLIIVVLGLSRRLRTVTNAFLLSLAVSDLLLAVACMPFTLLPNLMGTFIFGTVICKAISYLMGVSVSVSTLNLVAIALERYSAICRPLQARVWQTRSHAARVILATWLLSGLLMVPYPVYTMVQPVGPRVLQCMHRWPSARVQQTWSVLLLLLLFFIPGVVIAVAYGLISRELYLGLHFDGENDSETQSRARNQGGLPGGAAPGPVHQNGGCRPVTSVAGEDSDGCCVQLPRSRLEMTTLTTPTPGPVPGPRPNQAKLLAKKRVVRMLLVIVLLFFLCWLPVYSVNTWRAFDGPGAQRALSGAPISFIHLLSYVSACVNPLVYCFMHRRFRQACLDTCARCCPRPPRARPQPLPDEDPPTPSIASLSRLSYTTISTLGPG
Experimental: Each experiment was performed in duplicate and the results given are the means from at least two separate experiments.
Two micrograms of PCDL-SRα containing either the CCKA coding region insert subcloned at an Xba 1 site in the sense orientation or the CCKB insert subcloned at an Eco R1 site in the sense orientation were transfected into a near confluent 100 mm tissue culture plate containing approximately 1×10^6 COS-7 cells using a DEAE/dextran method. Approximately 48 hours post transfection, the cells were washed twice with phosphate buffered saline (PBS), pH 7.4, 0.1% BSA at 4° C., scraped from the plate in Dulbeccols Modified Eagle's Medium (DMEM), 0.1% BSA, 4° C., centrifuged at 400×G, and resuspended at approximately 3-105 cells per ml in DMEM, 0.1% BSA, 4° C. […] Cells were subsequently washed three times with 2 ml PBS, 0.1% BSA, 4° C. by filtration on glass filters (Whatman GF/B) using a suction manifold (Millipore). Filters were assayed for gamma radioactivity (Packard, Auto-Gamma).

CCKA receptor = biological target: T2, CCKA receptor (Rattus norvegicus, UniProt P30551); experiment: Ligand-induced chloride current in Xenopus oocytes injected with rat CCKA receptor mRNA; assay type: cell-based; conditions: oocytes voltage clamped at -70 mV, 1 and 2 days after injection; FIG. 5A: 1 μM CCK-8, 1 μM gastrin-releasing peptide, 4 μM substance P
T2 construct: expressed in transfected cells; host or cells: Xenopus oocytes injected with in vitro transcribed RNA (clone nt 5 to 1506 in pcDNA-1)
T2 sequence (P30551 1-444): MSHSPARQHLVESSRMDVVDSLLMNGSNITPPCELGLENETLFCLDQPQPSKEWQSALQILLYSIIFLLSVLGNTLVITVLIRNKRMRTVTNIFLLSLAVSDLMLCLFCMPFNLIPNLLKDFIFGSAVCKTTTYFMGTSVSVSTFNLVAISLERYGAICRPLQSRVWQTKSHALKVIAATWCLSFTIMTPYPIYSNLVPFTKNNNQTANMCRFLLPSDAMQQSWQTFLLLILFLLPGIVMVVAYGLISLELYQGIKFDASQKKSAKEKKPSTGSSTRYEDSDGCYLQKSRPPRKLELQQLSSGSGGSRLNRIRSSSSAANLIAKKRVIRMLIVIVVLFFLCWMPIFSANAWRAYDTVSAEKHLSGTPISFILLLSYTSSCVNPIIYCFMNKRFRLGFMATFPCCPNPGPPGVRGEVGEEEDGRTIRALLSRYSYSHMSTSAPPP
Experimental: FIGS. 5A and 5B. Expression of the CCKA receptor in Xenopus oocytes. Ligand, induced chloride currents measured in the same oocytes one (A) and two (B) days after injection of mRNA (25 ng) in vitro transcribed from CCKA receptor cDNA cloned from rat pancreas. A. Response to agonists.
DNA was in vitro transcribed using T7 RNA polymerase from a CCK receptor clone template (5 to 1506, FIG. 1, SEQ NO:13) in pcDNA-1 (5 μg linearized with Apa 1) in the presence of the cap analog m^7G(5′)ppp(5′)G as recommended by the manufacturer (Promega). Xenopus oocytes were injected with 50 nl of approximately 25 ng of transcribed RNA. At 1-2 days, oocytes were voltage clamped at −70 mV, ligands were applied rapidly and directly to the constantly perfused bath and the ligand dependent Cl^− current measured.

acetylcholine receptor = experiment: L-364,718 on ACh response in oocytes injected with ACh receptor mRNA; assay type: cell-based
Text: (§1) Inhibition was specific for CCKA receptors (i.e., there was no inhibition of SP or ACh response in oocytes injected with their respective receptor mRNAs).

substance P receptor = biological target: T3, substance P receptor (Rattus norvegicus, UniProt P14600); experiment: L-364,718 on SP response in oocytes injected with SP receptor mRNA; assay type: cell-based
T3 construct: expressed in transfected cells; host or cells: Xenopus oocytes injected with receptor mRNA
T3 sequence (P14600 whole entry): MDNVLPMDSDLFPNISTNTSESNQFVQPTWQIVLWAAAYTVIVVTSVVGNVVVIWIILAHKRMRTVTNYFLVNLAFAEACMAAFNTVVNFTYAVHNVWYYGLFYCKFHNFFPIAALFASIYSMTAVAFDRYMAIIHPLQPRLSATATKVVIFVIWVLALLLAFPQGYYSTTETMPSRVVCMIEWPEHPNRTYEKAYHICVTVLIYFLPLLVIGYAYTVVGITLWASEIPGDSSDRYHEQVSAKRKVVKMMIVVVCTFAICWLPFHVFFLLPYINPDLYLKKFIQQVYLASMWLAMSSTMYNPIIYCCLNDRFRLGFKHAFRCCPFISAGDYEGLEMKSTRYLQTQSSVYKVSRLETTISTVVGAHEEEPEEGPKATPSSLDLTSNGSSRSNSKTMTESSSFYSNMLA
Text: as §1

Cc1cccc(NC(=O)N[C@@H]2N=C(c3ccccc3)c3ccccc3N(C)C2=O)c1 [L-365,260]
potency at inhibiting 125I-BH-CCK-8 binding relative to L-364,718 (CCKB receptor): 10-100 fold

gastrin-releasing peptide (VPLPAGGGTVLTKMYPRGNHWAVGHLM; ends and bridges not checked; UniProt P07492 24-50, looked up)
response of oocytes to agonist (ligand dependent Cl- current) (CCKA receptor): not

substance P
response of oocytes to agonist (ligand dependent Cl- current) (CCKA receptor): not

CN1C(=O)[C@@H](NC(=O)c2cc3ccccc3[nH]2)N=C(c2ccccc2)c2ccccc21 [L-364,718]
inhibition of ACh response (acetylcholine receptor): no inhibition | inhibition of SP response (substance P receptor): no inhibition

— patent US6706493B2, “DNA encoding a cholecystokinin receptor” (The United States of America as represented by the …, priority 1992, dated 2004)
